Assay results: patent US20220354827A1 (priority 2019, published 2022)
Read-outs that look alike come from different tables or passages of the source.

Tests used:
[1] = system: ATP-mediated elevation of cytosolic calcium in cells from Alzheimer's disease patients; settings: for peak elevation of [Ca2+]c: ATP 30 μM, percentage of baseline
Protocol: The changes of cytosolic Ca^2+ concentration ([Ca^2+ ]c) of iPSCs after ATP exposure were measured using jellyfish photoprotein aequorin-based probe. 7.5-1.2×10^4 cells were plated on 12 mm coverslips in 24 well plate, grow to 50-60% confluence then transfected with the cyt-Aeq plasmid using Lipofectamine 3000 Transfection Reagent (Thermo Fisher Scientific) according to the manufacturer's instruction. The next day, the transfected cells were incubated with 5 μM coelenterazine for 1 h in modified Krebs-Ringer buffer (in mM: 140 NaCl, 2.8 KCl, 2 MgCl2, 10 Hepes, 11 glucoses, pH 7.4) supplemented with 1 mM CaCl2 and then were transferred to the perfusion chamber. All aequorin measurements were carried out in KRB, anesthetics were added to the same medium as specified. The experiments were performed in a custom-built aequorin recording system. For extracellular Ca^2+ free experiments, Ca^2+ free buffer was used (KRB without Ca^2+ with 5 mM EGTA). The experiments were terminated by lysing the cells with 100 μM digitonin in a hypotonic Ca^2+-rich solution (10 mM CaCl2 in H2O), thus discharging the remaining aequorin pool. The light signal was collected and calibrated into [Ca^2+ ]c values by an algorithm based on the Ca^2+ response curve of aequorin at physiological conditions of pH, [Mg^2+], and ionic strength, as previously described by Filadi R, et al., PNAS 2015; 201504880; Bonora M, et al., Nat Protoc 2013; 8:2105, each of which is incorporated by reference in its entirety.

[2] = system: induced pluripotent stem cells (iPSCs) from Alzheimer's disease (AD) patients; settings: 24 h; for increase of MTT (cell viability): dantrolene 30 μM
Protocol: (§1) Human control (AG02261) and sporadic Alzheimer's disease (AG11414) iPSCs were obtained from John A. Kessler's lab. Familial Alzheimer's disease (GM24675) iPSCs were purchased from Coriell Institute. Each type of iPSC was generated from skin fibroblasts of one heathy human subject or one patient diagnosed of either SAD or FAD. The human pluripotent stem cells were maintained on Matrigel coated plates (BD Biosciences) in mTeSR™1 medium (Catalog #05850, Stem cell Technologies) and were cultured in a 5% CO2 humidified atmosphere at 37° C. The culture medium was changed every day.
The cell viability on different wells in 96-well plates was determined using the MTT (3-(4,5-dimethylthiazol-2-yl)-2,5-diphenyltetrazolium bromide, Sigma-Aldrich, St. Louis, Mo.) reduction assay at 24 h as previously described by Qiao H, et al., Anesthesiology 2017; 127:490; Ren G, et al., Sci Rep 2017; 7:12378, each of which is incorporated by reference in its entirety. After being washed with PBS, the samples were incubated with fresh culture medium containing MTT (0.5 mg/mL in the medium) at 37° C. for 4 h in the dark. The medium was then removed and formazan was solubilized with dimethyl sulfoxide (DMSO). The absorbance was measured at 540 nm with plate reader (Synergy™ H1 microplate reader, BioTek, Winooski, Vt.).

[3] = system: induced pluripotent stem cells (iPSCs) from Alzheimer's disease (AD) patients; settings: FAD cells; vs DMSO vehicle
Protocol: as §1

iPSC from AD patients = settings: compared with DMSO
Protocol: As described previously by Ren G, et al., Sci Rep 2017; 7:12378, which is incorporated by reference in its entirety, LysoTracker® Red DND-99 (Molecular Probe, Eugene, Oreg.) probe stock solution was diluted to a working concentration of 50 nM in HBSS+. IPSCs cells were plated on coverslips coated with Matrigel (BD Biosciences) in mTeSR™1 (Catalog #05850). After being washed three times with HBSS+, the cells were loaded with pre-warmed (37° C.) probe containing HBSS+ and incubated for 1 h at 37° C. Fresh medium was added to replace the labeling solution. The cells were observed by a fluorescent microscope fitted with the correct filter set for the probe used, to determine if the cells were sufficiently fluorescent. LysoTracker Red used an […].

[4] = system: cortical neurons generated from SAD and FAD patient iPSCs; settings: dantrolene for 3 days
[5] = system: cortical neurons generated from SAD and FAD patient iPSCs; settings: FAD cells; dantrolene treatment
[6] = system: NMDA mediated elevation of cytosolic Ca2+ concentrations in iPSC from AD patients
[7] = system: vacuolar-type H+-ATPase (V-ATPase) in lysosomes (LAMP-2) of iPSC; settings: dantrolene 30 μM
[8] = system: LC3II in iPSCs from AD patients
Protocol: Western blotting was performed according to the standard procedure. Total protein extracts from iPSCs cells were obtained by lysing the cells in ice-cold lysis buffer (50 mM Tris-HCl, 150 mM NaCl and 1% Triton X-100) in the presence of a cocktail of protease inhibitors, as described by Hollomon, M G, et al., BMC Cancer 2013; 13:500, which is incorporated by reference in its entirety. After centrifugation, the supernatant was collected, and the total protein was quantified using a bicinchoninic acid (BCA) protein assay kit (Thermo Scientific, Rockford, Ill.). Equal amounts of protein for each lane were loaded and separated on 15% sodium dodecyl sulfate-polyacrylamide gel electrophoresis (SDSPAGE).
After electrophoresis, proteins were transferred onto a polyvinylidene fluoride (PVDF) membrane. The membranes were blocked with 5% fat-free milk dissolved in PBS-T for 1 h at room temperature, and then stained with primary antibody at 4° C. overnight. After the wash with PBS-T, the membranes were incubated with secondary antibodies (HRP conjugated anti-rabbit and anti-mouse IgG) at 1:1,000 dilutions, and β-actin served as a loading control. Signals were detected with an enhanced chemiluminescence detection system (Millipore, Billerica, Mass.) and quantified by scanning densitometry.

[9] = intranasal 5 mg/kg, 3 times/wk, 3 weeks; vs vehicle
[10] = intranasal 5 mg/kg, 3 times/wk, 4 months; vs vehicle
5XFAD mice = settings: for hippocampus-dependent memory (CFC) vs untreated 5XFAD controls / hippocampus-independent memory (FC-cued) vs controls: 6 months of age
[11] = system: wild type (WT) and 5XFAD (TG) mice; settings: all groups
[12] = mouse, in vivo
[13] = all groups, 10 months of age
[14] = 11 months of age
[15] = not given; remark: listed apart in the source
[16] = system: amyloid plaques in hippocampus and cortex of 5XFAD mice; settings: IN-DAN, SQ-DAN, ETG and LTG
[17] = system: iPSCs derived immature neurons
[18] = system: glutamate mediated elevation of mitochondrial calcium concentration in iPSC-derived neurons; settings: FAD neurons; glutamate 20 mM; dantrolene 20 μM pretreatment 1 hour

**Q.** Which results are given for `Nc1ncnc2c1ncn2[C@@H]1O[C@H](COP(=O)(O)OP(=O)(O)OP(=O)(O)O)[C@@H](O)[C@H]1O` [ATP, adenosine triphosphate]?
**A.** peak elevation of [Ca2+]c ([1]; FAD cells): 128.3%; peak elevation of [Ca2+]c ([1]; SAD cells): 140.4%; peak elevation of [Ca2+]c ([1]; control cells): 84.1%

**Q.** With `O=C1CN(/N=C/c2ccc(-c3ccc([N+](=O)[O-])cc3)o2)C(O)=N1` [dantrolene] as the molecule, how does the “increase of MTT (cell viability)” value ([2]; iPSC FAD) read?
**A.** The value was 67.6%.

**Q.** What about the “increase of MTT (cell viability)” value ([2]; iPSC SAD) of the same molecule?
**A.** Its value is 15.1%.

**Q.** What about the “cell viability (MTT)” value ([2]; iPSCs from healthy human subjects (CON), 30 μM) of the same molecule?
**A.** The value was “did not affect”.

**Q.** And the “cell proliferation, percentage of BrdU-positive cells” value [3]?
**A.** Its value is “greater proliferation”.

**Q.** And the lysotracker-positive acidic vesicles (iPSC from AD patients; FAD cells)?
**A.** Its lysotracker-positive acidic vesicles is “significantly increased”.

**Q.** What about the lysotracker-positive acidic vesicles (iPSC from AD patients; SAD cells) of the same molecule?
**A.** The lysotracker-positive acidic vesicles was “significantly increased”.

**Q.** And the “mean number of dendrite intersections at around 150 μM from soma” value ([4]; FAD cells)?
**A.** Its value is “significantly greater”.

**Q.** What about the “mean number of dendrite intersections at around 150 μM from soma” value ([4]; SAD cells) of the same molecule?
**A.** The value was “significantly greater”.

**Q.** What about the PSD95 density [5] of the same molecule?
**A.** The PSD95 density was “significantly greater”.

**Q.** What about the synapsin-1 density [5] of the same molecule?
**A.** The synapsin-1 density was “significantly increased”.

**Q.** What about the “NMDA-mediated elevation of [Ca2+]c and AUC” value [6] of the same molecule?
**A.** Its value is “ameliorated”.

**Q.** And the “integrated cytosolic Ca2+ (AUC), ATP+Ca2++DAN vs ATP+Ca2+” value ([1]; FAD cells, dantrolene 30 μM pretreatment, 1 mM extracellular Ca2+)?
**A.** The value was “significantly reduced”.

**Q.** What about the “ATP-mediated peak or overall elevation of [Ca2+]c” value ([1]; absence of extracellular Ca2+ influx, SAD/FAD cells, not statistically significant) of the same molecule?
**A.** Its value is “only trended to inhibit”.

**Q.** And the “integrated cytosolic Ca2+ (AUC), ATP+Ca2++DAN vs ATP+Ca2+” value ([1]; control cells, dantrolene 30 μM pretreatment, 1 mM extracellular Ca2+)?
**A.** Its value is “significantly reduced”.

**Q.** And the “peak cytosolic [Ca2+]c, ATP+Ca2++DAN” value ([1]; dantrolene 30 μM pretreatment, 1 mM extracellular Ca2+, between groups)?
**A.** The value was “no significant differences”.

**Q.** And the “V-ATPase in lysosomes (LAMP-2) compared with controls” value ([7]; FAD cells)?
**A.** Its value is “no longer significantly reduced”.

**Q.** What about the “V-ATPase in lysosomes (LAMP-2) compared with controls” value ([7]; SAD cells) of the same molecule?
**A.** Its value is “remained significantly lower”.

**Q.** And the “increase of LC3II level” value ([8]; FAD iPSCs, P<0.001)?
**A.** The value was 49.4%.

**Q.** And the “increase of LC3II level” value ([8]; SAD iPSCs, P=0.3483)?
**A.** Its value is 47.3%.

**Q.** What about the “olfaction, time to retrieve buried food” value [9] of the same molecule?
**A.** Its value is “No significant differences”.

**Q.** And the “motor function, time spent on the rotarod” value [10]?
**A.** Its value is “No significant differences”.

**Q.** What about the “hippocampus-dependent memory (CFC) vs untreated 5XFAD controls” value (5XFAD mice; IN-DAN, ETG) of the same molecule?
**A.** Its value is “significantly greater memory”.

**Q.** And the “hippocampus-independent memory (FC-cued) vs controls” value (5XFAD mice; IN-DAN, ETG)?
**A.** The value was “significantly improved”.

**Q.** And the “hippocampus-dependent memory (CFC) vs 5XFAD controls” value (5XFAD mice; IN-DAN, ETG, 11 months of age)?
**A.** The value was “significantly greater”.

**Q.** And the “hippocampus-independent memory (FC-cued) vs 5XFAD CON” value (5XFAD mice; IN-DAN, ETG, 11 months of age)?
**A.** The value was “significantly better”.

**Q.** What about the “hippocampus-independent memory (FC-cued) vs 5XFAD CON” value (5XFAD mice; IN-DAN, LTG, 11 months) of the same molecule?
**A.** Its value is “No significant memory improvement”.

**Q.** What about the “hippocampus-dependent memory (CFC) vs 5XFAD CON” value (5XFAD mice; IN-DAN, LTG, 11 months of age) of the same molecule?
**A.** The value was “significantly improved”.

**Q.** What about the “hippocampus-dependent memory (CFC) vs untreated 5XFAD controls” value (5XFAD mice; SQ-DAN, ETG) of the same molecule?
**A.** The value was “significantly greater memory”.

**Q.** And the “hippocampus-independent memory (FC-cued) vs controls” value (5XFAD mice; SQ-DAN, ETG)?
**A.** The value was “significantly improved”.

**Q.** And the “hippocampus-independent memory (FC-cued) vs 5XFAD CON” value (5XFAD mice; SQ-DAN, ETG, 11 months of age)?
**A.** The value was “trended to improve memory but were not statistically different”.

**Q.** What about the “hippocampus-independent memory (FC-cued) vs 5XFAD CON” value (5XFAD mice; SQ-DAN, LTG, 11 months) of the same molecule?
**A.** The value was “No significant memory improvement”.

**Q.** And the “hippocampus-dependent memory (CFC) vs 5XFAD CON” value (5XFAD mice; SQ-DAN, LTG, 11 months of age)?
**A.** Its value is “trended to be better but was not statistically significant”.

**Q.** And the “number of times the animals crossed the platform” value ([11]; 10 months)?
**A.** Its value is “no significant differences”.

**Q.** What about the “percent time in the target quadrant (probe trial) vs controls” value ([11]; 10 months) of the same molecule?
**A.** The value was “no significant differences”.

**Q.** And the “escape latency in place trials vs controls” value ([11]; 10 months of age)?
**A.** Its value is “no significant differences”.

**Q.** What about the “motor function (rotarod) vs control group” value [12] of the same molecule?
**A.** Its value is “No significant differences”.

**Q.** And the “olfaction (buried food test)” value ([13]; 5XFAD)?
**A.** The value was “No significant differences”.

**Q.** What about the “olfaction (buried food test)” value ([13]; WT) of the same molecule?
**A.** The value was “No significant differences”.

**Q.** And the “plasma alanine aminotransferase (ALT) activity vs control group” value (5XFAD, 6-month intranasal treatment in LTG)?
**A.** The value was “significantly increased”.

**Q.** And the “plasma alanine aminotransferase (ALT) activity vs control group” value (5XFAD, other treatment groups)?
**A.** Its value is “No significant differences”.

**Q.** And the “plasma alanine aminotransferase (ALT) activity vs control group” value (WT, 6-month subcutaneous treatment in LTG)?
**A.** Its value is “significantly increased”.

**Q.** And the “plasma alanine aminotransferase (ALT) activity vs control group” value (WT, other treatment group)?
**A.** The value was “No significant difference”.

**Q.** What about the “hepatic pathology (H&E stained sections)” value ([14]; 5XFAD ETG mice) of the same molecule?
**A.** Its value is “No gross differences”.

**Q.** What about the “hepatic pathology (H&E stained sections)” value ([14]; WT ETG mice) of the same molecule?
**A.** Its value is “No gross differences”.

**Q.** What about the bodyweight growth curve ([15]; 5XFAD mice, ETG groups) of the same molecule?
**A.** Its bodyweight growth curve is “No significant differences”.

**Q.** And the body weight ([15]; WT, 12 months of age)?
**A.** The body weight was “No significant difference”.

**Q.** And the “number of amyloid plaques per area (mm^2) in hippocampus and cortex” value [16]?
**A.** Its value is “No significant differences”.

**Q.** What about the “percent area of the hippocampus and cortex occupied by plaques” value ([16]; vs control) of the same molecule?
**A.** The value was “No significant differences”.

**Q.** What about the “glutamate-induced reduction of cytosolic ATP concentration” value ([17]; neurons derived from AD patients) of the same molecule?
**A.** Its value is “significantly inhibited”.

**Q.** And the “glutamate-induced overall exposure (AUC) of mitochondrial calcium concentration” value [18]?
**A.** The value was “abolished”.

**Q.** And the “glutamate-induced peak elevation of mitochondrial calcium concentration” value [18]?
**A.** Its value is “abolished”.

**Q.** With bafilomycin as the molecule, how does the “LC3II level on co-treatment with dantrolene” value ([8]; SAD and FAD iPSCs, vs dantrolene alone) read?
**A.** Its value is “further elevated”.

**Q.** Which “cytosolic ATP production” value ([17]; glutamate 20-30 mM, 24 hours) does the source give for glutamate here?
**A.** Its value is “dose dependently decreased”.
